From US4126616A, “N-propylnorapomorphine diesters” (Hinshaw; William B., priority 1976, dated 1978)
Structures can show the parent of a compound that is named as a salt. Where two headings read alike, the source gives them in different places.

Tested on: caudate lesioned mouse
Experiment: caudate lesioned mouse test (anti-parkinson activity)
Format: in vivo
Details: for ED50: caudate lesioned mouse; for responders at 52 µmol/kg: dose 0.052 m. mole/kg; for Molar Potency Ratio Claimed/Ref. Ester: claimed N-propyl ester vs corresponding N-methyl reference ester; for responders at 416 µmol/kg: dose 0.416 m. mole/kg; for responders at 132 µmol/kg: dose 0.132 m. mole/kg; for responders at 6.5 µmol/kg: dose 0.0065 m. mole/kg
Method: An index of anti-parkinson activity was determined using the caudate lesioned mouse test described by Lotti, Life Sci., 10, 781-789 (1971). The mice having unilateral lesions of the caudate nucleus prepared according to the method of Lotti supra were observed immediately after the surgical procedure for strong postural asymmetries directed to the same side as the lesion. When this asymmetry was not observed, the mice were discarded. Operated mice were allowed at least 14 days to recover prior to drug testing. The lesioned mice were tested with apomorphine using 1.7 mg./kg. of base administered intraperitoneally in a 1% suspension in gum tragacanth. […] Only those mice which twisted or circled toward the lesioned side in all three test periods after the apomorphine injection were retained for further drug testing. The test drugs were all administered in 1% gum tragacanth suspension in a volume of 0.1 ml./10 g. of body weight. Doses were expressed in mg./kg. of free base.
Results of tests in the caudate lesioned mouse test described above which were obtained on the compounds of the invention are given in the table below identified, in each case, by the example numbers above where their preparations are described. Corresponding data for reference apomorphine diesters described in German patent application No. 2,154,162 are given in a side-by-side relationship for a number of the species. The reference compounds, designated Ref. 1, Ref. 1B, Ref. 1C, Ref. 1D, Ref. 1E, Ref. 1F, Ref. 2 and Ref. 2A correspond, respectively, to the compounds of the invention identified by Examples 1, 1B, 1C, 1D, 1E, 1F, 2 and 2A and differ from the latter only in having a methyl group on the apomorphine nitrogen from instead of an n-propyl group as present in the instant compounds.

[1] = Mus musculus, 0.5 h, read-out: No. Mice Affected/No. Mice Tested, 1/2 h
[2] = Mus musculus, 1 h, read-out: No. Mice Affected/No. Mice Tested, 1 h
[3] = Mus musculus, 4 h, read-out: No. Mice Affected/No. Mice Tested, 4 h
[4] = Mus musculus, 6 h, read-out: No. Mice Affected/No. Mice Tested, 6 h
[5] = Mus musculus, 24 h, read-out: No. Mice Affected/No. Mice Tested, 24 h
[6] = Mus musculus, read-out: No. Mice Affected/No. Mice Tested, Total
[7] = Mus musculus, 0.5 h, dose 0.026 m. mole/kg, 1/2 h post-drug, read-out: No. Mice Affected/No. Mice Tested, 1/2 h (converted)
[8] = Mus musculus, 0.5 h, 1/2 h post-drug, read-out: No. Mice Affected/No. Mice Tested, 1/2 h (converted)
[9] = Mus musculus, dose 0.026 m. mole/kg, 1 h post-drug, read-out: No. Mice Affected/No. Mice Tested, 1 h (converted)
[10] = Mus musculus, dose 0.026 m. mole/kg, 4 h post-drug, read-out: No. Mice Affected/No. Mice Tested, 4 h (converted)
[11] = Mus musculus, dose 0.026 m. mole/kg, 6 h post-drug, read-out: No. Mice Affected/No. Mice Tested, 6 h (converted)
[12] = Mus musculus, dose 0.026 m. mole/kg, 24 h post-drug, read-out: No. Mice Affected/No. Mice Tested, 24 h
[13] = Mus musculus, dose 0.026 m. mole/kg, total, read-out: No. Mice Affected/No. Mice Tested, Total (converted)
[14] = Mus musculus, 1 h post-drug, read-out: No. Mice Affected/No. Mice Tested, 1 h (converted)
[15] = Mus musculus, 4 h post-drug, read-out: No. Mice Affected/No. Mice Tested, 4 h (converted)
[16] = Mus musculus, 6 h post-drug, read-out: No. Mice Affected/No. Mice Tested, 6 h (converted)
[17] = Mus musculus, 24 h post-drug, read-out: No. Mice Affected/No. Mice Tested, 24 h
[18] = Mus musculus, total, read-out: No. Mice Affected/No. Mice Tested, Total (converted)
[19] = Mus musculus, dose 0.026 m. mole/kg, 2 h post-drug, read-out: No. Mice Affected/No. Mice Tested, 2 h (converted)
[20] = Mus musculus, 24 h post-drug, read-out: No. Mice Affected/No. Mice Tested, 24 h (converted)
[21] = Mus musculus, 2 h, read-out: No. Mice Affected/No. Mice Tested, 2 h

With `CCCN1CCc2cccc3c2C1Cc1ccc(O)c(O)c1-3` (centres unmarked) [N-propylnorapomorphine] the ED50 (Mus musculus, po, read-out: ED50, on oral administration, oral) was 3.2 µmol/kg.

For `CC(C)C(=O)Oc1ccc2c(c1OC(=O)C(C)C)-c1cccc3c1C(C2)N(C)CC3` (centres unmarked) [Ref. 1B, reference compound], the responders at 208 µmol/kg [1] was 0%, the responders at 208 µmol/kg [2] was 0% and the responders at 208 µmol/kg [3] was 25%. It also gave a responders at 208 µmol/kg [4] of 0%, a responders at 208 µmol/kg [5] of 0% and a responders at 208 µmol/kg [6] of 25%.

Compound `CCCN1CCc2cccc3c2C1Cc1ccc(OC(=O)C(C)C)c(OC(=O)C(C)C)c1-3` (centres unmarked) [Ex. 1B, N-Propylnorapomorphine diisobutyrate] has a responders at 26 µmol/kg [7] of 0%, a responders at 52 µmol/kg [8] of 33.3% and a responders at 26 µmol/kg [9] of 25%. For the same compound, the responders at 26 µmol/kg [10] was 50%, the responders at 26 µmol/kg [11] was 50% and the responders at 26 µmol/kg [12] was 0%. It also gave a responders at 26 µmol/kg [13] of 50%, a responders at 52 µmol/kg [14] of 33.3% and a responders at 52 µmol/kg [15] of 33.3%. It also gave a responders at 52 µmol/kg [16] of 0%, a responders at 52 µmol/kg [17] of 0% and a responders at 52 µmol/kg [18] of 33.3%. For the same compound, the “Molar Potency Ratio Claimed/Ref. Ester” value was at least 8.

Work on `CN1CCc2cccc3c2C1Cc1ccc(OC(=O)c2ccc(Cl)cc2)c(OC(=O)c2ccc(Cl)cc2)c1-3` (centres unmarked) [Ref. 1F, reference compound] yielded a responders at 416 µmol/kg [8] of 0%, a responders at 416 µmol/kg [14] of 0% and a responders at 416 µmol/kg [15] of 0%. For the same compound, the responders at 416 µmol/kg [16] was 0%, the responders at 416 µmol/kg [17] was 0% and the responders at 416 µmol/kg [18] was 0%.

Compound `CCCCC(=O)Oc1ccc2c(c1OC(=O)CCCC)-c1cccc3c1C(C2)N(CCC)CC3` (centres unmarked) [Ex. 2A, N-propylnorapomorphine dipentanoate hydrochloride] has a responders at 26 µmol/kg [7] of 0%, a responders at 132 µmol/kg [8] of 50% and a responders at 26 µmol/kg [9] of 0%. It also gave a responders at 26 µmol/kg [19] of 0%, a responders at 26 µmol/kg [10] of 0% and a responders at 26 µmol/kg [11] of 0%. The responders at 26 µmol/kg [12] was 0%, the responders at 26 µmol/kg [13] was 0% and the responders at 132 µmol/kg [14] was 75%. The responders at 132 µmol/kg (Mus musculus, 2 h post-drug, read-out: No. Mice Affected/No. Mice Tested, 2 h (converted)) was 75%, the responders at 132 µmol/kg [15] was 75% and the responders at 132 µmol/kg [16] was 75%. For the same compound, the responders at 132 µmol/kg [20] was 75%, the responders at 132 µmol/kg [18] was 75% and the “Molar Potency Ratio Claimed/Ref. Ester” value was at least 3.

With `CCCN1CCc2cccc3c2C1Cc1ccc(OC(=O)c2ccc(OC)cc2)c(OC(=O)c2ccc(OC)cc2)c1-3` (centres unmarked) [Ex. 1J, N-Propylnorapomorphine bis-4-methoxybenzoate] the ED50 (ED50, read-out: ED50) was 13 µmol/kg, the responders at 6.5 µmol/kg (Mus musculus, 0.5 h, 1/2 h post-drug, read-out: No. Mice Affected/No. Mice Tested, 1/2 h) was 0% and the responders at 26 µmol/kg [7] was 50%. It also gave a responders at 6.5 µmol/kg (Mus musculus, 1 h post-drug, read-out: No. Mice Affected/No. Mice Tested, 1 h) of 0%, a responders at 6.5 µmol/kg (Mus musculus, 2 h post-drug, read-out: No. Mice Affected/No. Mice Tested, 2 h) of 0% and a responders at 6.5 µmol/kg (Mus musculus, 4 h post-drug, read-out: No. Mice Affected/No. Mice Tested, 4 h) of 0%. For the same compound, the responders at 6.5 µmol/kg (Mus musculus, 6 h post-drug, read-out: No. Mice Affected/No. Mice Tested, 6 h) was 0%, the responders at 6.5 µmol/kg [17] was 0% and the responders at 6.5 µmol/kg (Mus musculus, total, read-out: No. Mice Affected/No. Mice Tested, Total) was 0%. For the same compound, the responders at 26 µmol/kg [9] was 100%, the responders at 26 µmol/kg [19] was 75% and the responders at 26 µmol/kg [10] was 50%. The responders at 26 µmol/kg [11] was 50%, the responders at 26 µmol/kg [12] was 0% and the responders at 26 µmol/kg [13] was 100%.

`CN1CCc2cccc3c2C1Cc1ccc(OC(=O)C(C)(C)C)c(OC(=O)C(C)(C)C)c1-3` (centres unmarked) [Ref. 1C, reference compound] showed a responders at 208 µmol/kg (Mus musculus, 0.5 h, dose 0.208 m. mole/kg, 1/2 h post-drug, read-out: No. Mice Affected/No. Mice Tested, 1/2 h (converted)) of 0%, a responders at 416 µmol/kg [8] of 0% and a responders at 208 µmol/kg (Mus musculus, dose 0.208 m. mole/kg, 1 h post-drug, read-out: No. Mice Affected/No. Mice Tested, 1 h) of 0%. The responders at 208 µmol/kg (Mus musculus, dose 0.208 m. mole/kg, 4 h post-drug, read-out: No. Mice Affected/No. Mice Tested, 4 h (converted)) was 0%, the responders at 208 µmol/kg (Mus musculus, dose 0.208 m. mole/kg, 6 h post-drug, read-out: No. Mice Affected/No. Mice Tested, 6 h (converted)) was 0% and the responders at 208 µmol/kg (Mus musculus, dose 0.208 m. mole/kg, 24 h post-drug, read-out: No. Mice Affected/No. Mice Tested, 24 h (converted)) was 0%. The responders at 208 µmol/kg (Mus musculus, dose 0.208 m. mole/kg, total, read-out: No. Mice Affected/No. Mice Tested, Total (converted)) was 0%, the responders at 416 µmol/kg [14] was 33.3% and the responders at 416 µmol/kg [15] was 66.7%. For the same compound, the responders at 416 µmol/kg [16] was 66.7%, the responders at 416 µmol/kg [17] was 0% and the responders at 416 µmol/kg [18] was 66.7%.

In the case of `CCCCCCCCCCCCCCCC(=O)Oc1ccc2c(c1OC(=O)CCCCCCCCCCCCCCC)-c1cccc3c1C(C2)N(CCC)CC3` (centres unmarked) [Ex. ID, N-Propylnorapomorphine dihexadecanoate], the responders at 52 µmol/kg [8] is reported as 0%, the responders at 132 µmol/kg [8] is reported as 0% and the responders at 52 µmol/kg [14] is reported as 0%. The responders at 52 µmol/kg [15] was 25%, the responders at 52 µmol/kg [16] was 25% and the responders at 52 µmol/kg [17] was 0%. It also gave a responders at 52 µmol/kg [18] of 25%, a responders at 132 µmol/kg [14] of 0% and a responders at 132 µmol/kg [15] of 100%. The responders at 132 µmol/kg [16] was 0%, the responders at 132 µmol/kg [20] was 33.3% and the responders at 132 µmol/kg [18] was 100%. The “Molar Potency Ratio Claimed/Ref. Ester” value was at least 8.

In the case of `CCCN1CCc2cccc3c2C1Cc1ccc(OC(=O)CC)c(OC(=O)CC)c1-3` (centres unmarked) [Ex. 1 (Base), N-propylnorapomorphine dipropionate], the responders at 5.2 µmol/kg [1] is reported as 0%, the responders at 13 µmol/kg [1] is reported as 75% and the responders at 26 µmol/kg [1] is reported as 100%. It also gave a responders at 5.2 µmol/kg [2] of 0%, a responders at 13 µmol/kg [2] of 75% and a responders at 26 µmol/kg [2] of 100%. The responders at 5.2 µmol/kg [21] was 0%, the responders at 13 µmol/kg [21] was 75% and the responders at 26 µmol/kg [21] was 75%. It also gave a responders at 5.2 µmol/kg [3] of 0%, a responders at 13 µmol/kg [3] of 75% and a responders at 26 µmol/kg [3] of 75%. For the same compound, the responders at 5.2 µmol/kg [4] was 0%, the responders at 13 µmol/kg [4] was 50% and the responders at 26 µmol/kg [4] was 25%. The responders at 5.2 µmol/kg [5] was 0%, the responders at 13 µmol/kg [5] was 0% and the responders at 26 µmol/kg [5] was 0%. For the same compound, the ED50 (Mus musculus, ED50) was 10 µmol/kg, the responders at 5.2 µmol/kg [6] was 0% and the responders at 13 µmol/kg [6] was 75%. For the same compound, the responders at 26 µmol/kg [6] was 100% and the “Molar Potency Ratio Claimed/Ref. Ester” value was 10.
